Test results as given in US20060205769A1, “Piperidine or 8-aza-bicyclo[3.2.1]oct-3-yl derivatives useful as modulators of chemokine receptor activity” (priority 2003, published 2006).
Where a name gives a salt, the structure may show the parent alone.

What follows are molecules tested against T1, recombinant human CCR5 receptor (Homo sapiens, UniProt P51681) (assay: in vitro radioligand binding assay: inhibition of binding of iodinated MIP-1α to membranes of CHO cells expressing CCR5 (scintillation proximity)). Settings: displacement of 0.1 nM iodinated MIP-1α; negative log (base 10) of IC50; average if tested more than once.
T1 construct: expressed in transfected cells; host or cells: Chinese hamster ovary (CHO) cells; membranes
Protocol: The ability of compounds to inhibit the binding of MIP-1α was assessed by an in vitro radioligand binding assay. Membranes were prepared from Chinese hamster ovary cells which expressed the recombinant human CCR5 receptor. These membranes were incubated with 0.1 nM iodinated MIP-1α, scintillation proximity beads and various concentrations of the compounds of the invention in 96-well plates. The amount of iodinated MIP-1α bound to the receptor was determined by scintillation counting. Competition curves were obtained for compounds and the concentration of compound which displaced 50% of bound iodinated MIP-1α was calculated (IC50).
In Table IV the results are presented as Pic50 values. A Pic50 value is the negative log (to base 10) of the IC50 result, so an IC50 of 1 μM (that is 1×10^−6M) gives a Pic50 of 6. If a compound was tested more than once then the data below is an average of the probative tests results.

T1 sequence (P51681 whole entry): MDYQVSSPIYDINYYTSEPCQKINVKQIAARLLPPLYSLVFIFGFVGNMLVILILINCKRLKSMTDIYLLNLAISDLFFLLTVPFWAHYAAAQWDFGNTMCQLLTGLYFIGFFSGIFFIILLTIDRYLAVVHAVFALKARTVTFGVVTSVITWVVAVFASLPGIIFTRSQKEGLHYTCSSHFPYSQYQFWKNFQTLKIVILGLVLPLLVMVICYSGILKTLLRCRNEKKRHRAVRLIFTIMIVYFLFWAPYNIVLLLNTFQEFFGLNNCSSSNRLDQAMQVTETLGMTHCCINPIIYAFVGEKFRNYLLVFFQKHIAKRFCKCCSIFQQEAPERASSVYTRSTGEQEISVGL

Compound	IC50 [nM]
CS(=O)(=O)N1CCC([C@@H](CCN2CCC(CCS(=O)(=O)C3CCNCC3)CC2)c2cc(F)cc(F)c2)CC1 [Table I Compound 2]	39.8
CS(=O)(=O)N1CCC([C@@H](CCN2CCC(CCS(=O)(=O)C3CCN(S(=O)(=O)C(F)(F)F)CC3)CC2)c2cc(F)cc(F)c2)CC1 [Table I Compound 3]	3.98
CS(=O)(=O)c1ccc([C@@H](CCN2CCC(CCS(=O)(=O)N3CCCCC3)CC2)c2cc(F)cc(F)c2)cc1 [Table III Compound 1, (R)-1-{3-(3,5-difluorophenyl)-3-[4-(methylsulfonyl)phenyl]propyl}-4-[2-(piperidin-1-ylsulfonyl)ethyl]piperidine hydrochloride]	3.16
